In ChEMBL document CHEMBL3102700, “Truncated norzoanthamine exhibiting similar collagen protection activity, toward a promising anti-osteoporotic drug” (Bioorg Med Chem Lett, 2014):
The source made the active and inactive calls. The rule behind the calls is not given here.

Legend:
[1] = Collagen protection activity of the compound assessed as residual collagen level after 180 mins by Sirius red colorimetric assay
[2] = Collagen protection activity of the compound assessed as residual collagen level at 10 uM after 180 mins by Sirius red colorimetric assay
[3] = Collagen protection activity of the compound assessed as residual collagen level at 1 uM after 180 mins by Sirius red colorimetric assay
[4] = Collagen protection activity of the compound assessed as residual collagen level at 0.1 uM after 180 mins by Sirius red colorimetric assay

| SMILES | Activity [1] | Activity [2] [%] | Activity [3] [%] | Activity [4] [%] |
| --- | --- | --- | --- | --- |
| COC(=O)C[C@@]1(C)[C@H]2C(=O)C[C@@H]3C(=O)C=C(C)C[C@H]3[C@]2(C)C=C2N3C[C@H]4C[C@H](C)C[C@]3(CC[C@]21C)O4 | inactive |  |  |  |
| C[C@H]1C[C@@H]2CN3[C@](CC[C@@]4(C)[C@]5(C)CCC[C@]34OC(=O)C5)(C1)O2 | Dose-dependent effect | 47.8 | 46.6 | 40 |
| CC1=CC(=O)CCC1 | inactive |  |  |  |
| CC1=CC(=O)[C@H]2CC(=O)[C@H]3[C@@](C)(C[C@@]45OC(=O)C[C@]3(C)[C@]4(C)CC[C@]34C[C@@H](C)C[C@H](CN35)O4)[C@@H]2C1 |  | 45 | 40.4 |  |
